Experiments:
Format in all cases: cell-based
YTS cells [1] = assay: Confocal microscopy of granule dispersion in YTS cells after Centrinone or CFI400495; details: YTS cells after treatment with Centrinone or CFI400495
Method: (§1) Centrinone and CFI400495 are high affinity and selective PLK4 inhibitors that induce depletion of the centrosome and cell cycle arrest. YTS cells were treated for 5 days with Centrinone 5 nM or CFI400495 50 nM. […] For this experiment, 5×10^5 cells/ml YTS cells were incubated during 5 days Centrinone 5 nM or CFI400495 50 nM, every 24 hours the media were replaced with fresh media containing similar amounts of the drug. On day 5, cells were assessed by microscopy for gamma-tubulin or alpha-tubulin.

YTS cells [2] = assay: CD107a degranulation of treated YTS cells after conjugation with 721.221 target cells; details: 5 days, Centrinone 5 nM or CFI400495 50 nM
Method: CD107a (also known as LAMP-1) is the standard to measure the process of degranulation. The more CD107a is expressed on the surface of the cell after stimulation, the more granules have been released. This is limited to the immunological synapse, in part secondary to the convergence process. CD107a upregulation is measured via flow cytometry after PMA/lonomycin activation and can be measured following target cell conjugation. […] The latter requires synapse formation and engagement of receptors for downstream activation signaling. Differences in results between these two approaches (target cell conjugation versus PMA/lonomycin) map the candidate's impact to early (synapse formation and signaling) or late (mechanics of) degranulation.
as §1

YTS cells [3] = assay: Number of MTOC (alpha-tubulin hyper densities) in YTS cells treated with PLK4 inhibitors; details: 5 days, Centrinone 5 nM or CFI400495 50 nM
Method: as §1

COc1c(Nc2cc(C)[nH]n2)nc(Sc2ccc(S(=O)(=O)Cc3cccc([N+](=O)[O-])c3F)cc2F)nc1N1CCOCC1 [Centrinone, 2-[[2-Fluoro-4-[[(2-fluoro-3-nitrophenyl)methyl]sulfonyl]phenyl]thio]-5-methoxy-N-(5-methyl-1H-pyrazol-3-yl)-6-(4-morpholinyl)-4-pyrimidinamine]
granule dispersion (confocal microscopy images) (YTS cells [1]): more disperse granules
degranulation (CD107a expression) (YTS cells [2]): increases degranulation
number of MTOC (alpha Tubulin hyper densities) (YTS cells [3]): increase number of mTOC
